Reference: patent publication US20100267637A1, “TREATMENT OF MELANOMA WITH ALPHA THYMOSIN PEPTIDES IN COMBINATION WITH A KINASE INHIBITOR” (SciClone Pharmaceuticals, Inc., priority 2007, published 2010)

Tested on: murine B16 melanoma cells
Assay: Anti-tumor effect: tumor size / tumor volume in mice bearing subcutaneous B16 melanoma
Format: in vivo, C57BL/6 mice
Parameters: key to Tumor measurement L (length) / Tumor measurement W (width): The sign “—” indicates that tumor does not reach a measurable size
Details: for Tumor Volume (cm^3) (Mean ± SD): group mean; for PI (TV), percent inhibition of tumor volume: vs vehicle; for Tumor volumes on Day 15: Length × Width × Width/2
Experimental: The toxic effects of the dosing regimens were also monitored. […] Meanwhile 9H10 was given in two groups via i.p. on Day 3, 6 and 9. […] Tumor volume and body weight were measured every three days, and tumor weights were measured on Day 16 at the end of the study.
As per aseptic tissue culture procedures, one vial of B16 melanoma cells was removed from the liquid nitrogen stock, and placed into a 37° C. water bath. Gentle swirling was conducted until the content of the vial was thawed. Using tissue culture/sterile procedures, the cells were immediately centrifuged with a TD5A-WS centrifuge at 1000 rpm, 20-25° C., 5 min. After centrifugation, the cells were suspended in 0.1 to 0.5 mL normal saline (NS) and subcutaneously injected into 10 mice (0.1 mL/mouse, about 1×10^6 cells). After 7-10 days, when the tumor diameter was approximately 1 cm, the animals were euthanized with CO2 overdose and the tumors excised. The procedure was repeated with 20 mice to generate a sufficient number of B16 melanoma cells with adequate transplantability.
On the day of tumor implantation, approximately 1×10^6 cells in 0.1 mL were subcutaneously injected on the right axillary area of each mouse. The day of tumor implantation was defined as Day 0.
On Day 3, the animals were randomly assigned into nine different weight-matched and tumor-size-matched groups. Dosing was started on Day 3 using the regimen according to Table 2.
From Day 1 to Day 15, mortality and moribundity were checked twice daily, the body weights were recorded once every 3 days, and tumors were measured using a caliper once every 3 days. At the end of the study (Day 16), the animals were euthanized by CO2 asphyxiation, and the tumors were excised and weighed.
Based on the tumor size, the tumor volume (TV) was calculated with the formula: [TV=(Length×Width×Width)/2]. And the percent inhibition (PI) of TV (PITV) was calculated according to the equation below:
PITV(%)=(TV vehicle−TVdrug treated)/TV vehicle×100
Inter-group comparison was performed in terms of tumor volume, tumor weight and body weight, using a student's t test. P values of less than 0.05 were considered to be statistically significant.

## CNC(=O)c1cc(Oc2ccc(NC(=O)Nc3ccc(Cl)c(C(F)(F)F)c3)cc2)ccn1 [Sorafenib]
Day 3, animal F1
  Tumor measurement L (length): —
  Tumor measurement W (width): —
  Tumor volume: 0.0000 cm^3
Day 3, animal F2
  Tumor measurement L (length): 0.20 cm
  Tumor measurement W (width): 0.20 cm
  Tumor volume: 0.0040 cm^3
Day 3, animal F3
  Tumor measurement L (length): 0.10 cm
  Tumor measurement W (width): 0.10 cm
  Tumor volume: 0.0005 cm^3
Day 3, animal F4
  Tumor measurement L (length): —
  Tumor measurement W (width): —
  Tumor volume: 0.0000 cm^3
Day 3, animal F5
  Tumor measurement L (length): —
  Tumor measurement W (width): —
  Tumor volume: 0.0000 cm^3
Day 3, animal M1
  Tumor measurement L (length): 0.20 cm
  Tumor measurement W (width): 0.20 cm
  Tumor volume: 0.0040 cm^3
Day 3, animal M2
  Tumor measurement L (length): —
  Tumor measurement W (width): —
  Tumor volume: 0.0000 cm^3
Day 3, animal M3
  Tumor measurement L (length): —
  Tumor measurement W (width): —
  Tumor volume: 0.0000 cm^3
Day 3, animal M4
  Tumor measurement L (length): —
  Tumor measurement W (width): —
  Tumor volume: 0.0000 cm^3
Day 3, animal M5
  Tumor measurement L (length): —
  Tumor measurement W (width): —
  Tumor volume: 0.0000 cm^3
Day 3
  Tumor Volume (cm^3) (Mean ± SD): 0.001 ± 0.0017 cm^3
  PI (TV), percent inhibition of tumor volume: −750.00%
Day 6, animal F1
  Tumor measurement L (length): —
  Tumor measurement W (width): —
  Tumor volume: 0.0000 cm^3
Day 6, animal F2
  Tumor measurement L (length): —
  Tumor measurement W (width): —
  Tumor volume: 0.0000 cm^3
Day 6, animal F3
  Tumor measurement L (length): —
  Tumor measurement W (width): —
  Tumor volume: 0.0000 cm^3
Day 6, animal F4
  Tumor measurement L (length): —
  Tumor measurement W (width): —
  Tumor volume: 0.0000 cm^3
Day 6, animal F5
  Tumor measurement L (length): —
  Tumor measurement W (width): —
  Tumor volume: 0.0000 cm^3
Day 6, animal M1
  Tumor measurement L (length): —
  Tumor measurement W (width): —
  Tumor volume: 0.0000 cm^3
Day 6, animal M2
  Tumor measurement L (length): —
  Tumor measurement W (width): —
  Tumor volume: 0.0000 cm^3
Day 6, animal M3
  Tumor measurement L (length): —
  Tumor measurement W (width): —
  Tumor volume: 0.0000 cm^3
Day 6, animal M4
  Tumor measurement L (length): —
  Tumor measurement W (width): —
  Tumor volume: 0.0000 cm^3
Day 6, animal M5
  Tumor measurement L (length): —
  Tumor measurement W (width): —
  Tumor volume: 0.0000 cm^3
Day 6
  Tumor Volume (cm^3) (Mean ± SD): 0.000 ± 0.0000 cm^3
  PI (TV), percent inhibition of tumor volume: 100.00%
Day 9, animal F1
  Tumor volume: 0.0000 cm^3
Day 9, animal F2
  Tumor volume: 0.0000 cm^3
Day 9, animal F3
  Tumor volume: 0.0000 cm^3
Day 9, animal F4
  Tumor volume: 0.0000 cm^3
Day 9, animal F5
  Tumor measurement L (length): 0.10 cm
  Tumor measurement W (width): 0.10 cm
  Tumor volume: 0.0005 cm^3
Day 9, animal M1
  Tumor volume: 0.0000 cm^3
Day 9, animal M2
  Tumor volume: 0.0000 cm^3
Day 9, animal M3
  Tumor volume: 0.0000 cm^3
Day 9, animal M4
  Tumor volume: 0.0000 cm^3
Day 9, animal M5
  Tumor measurement L (length): 0.10 cm
  Tumor measurement W (width): 0.10 cm
  Tumor volume: 0.0005 cm^3
Day 9
  Tumor Volume (cm^3) (Mean ± SD): 0.000 ± 0.0002 cm^3
  PI (TV), percent inhibition of tumor volume: 99.52%
Day 9, p<0.05
  mean tumor volume compared with Group 1 (vehicle), statistics: statistically significantly smaller than Group 1
Day 12, animal F1
  Tumor measurements on Day 12, L: 0.30 cm
  Tumor measurements on Day 12, W: 0.30 cm
Day 12, animal F2
  Tumor volume: 0.0000 cm^3
Day 12, animal F3
  Tumor measurements on Day 12, L: 0.30 cm
  Tumor measurements on Day 12, W: 0.30 cm
Day 12, animal F4
  Tumor measurements on Day 12, L: 0.30 cm
  Tumor measurements on Day 12, W: 0.30 cm
Day 12, animal F5
  Tumor measurements on Day 12, L: 0.30 cm
  Tumor measurements on Day 12, W: 0.30 cm
Day 12, animal M1
  Tumor volume: 0.0000 cm^3
Day 12, animal M2
  Tumor measurements on Day 12, L: 0.30 cm
  Tumor measurements on Day 12, W: 0.30 cm
Day 12, animal M3
  Tumor volume: 0.0000 cm^3
Day 12, animal M4
  Tumor volume: 0.0000 cm^3
Day 12, animal M5
  Tumor measurements on Day 12, L: 0.30 cm
  Tumor measurements on Day 12, W: 0.30 cm
Day 12
  Tumor Volume (cm^3) (Mean ± SD): 0.008 ± 0.0070 cm^3
  PI (TV), percent inhibition of tumor volume: 97.64%
Day 15, animal F1
  Tumor measurements on Day 15, L: 0.60 cm
  Tumor measurements on Day 15, W: 0.60 cm
Day 15, animal F2
  Tumor measurements on Day 15, L: 0.40 cm
  Tumor volumes on Day 15: 0.0320 cm^3
  Tumor measurements on Day 15, W: 0.40 cm
Day 15, animal F3
  Tumor measurements on Day 15, L: 0.60 cm
  Tumor measurements on Day 15, W: 0.60 cm
Day 15, animal F4
  Tumor measurements on Day 15, L: 0.70 cm
  Tumor volumes on Day 15: 0.0875 cm^3
  Tumor measurements on Day 15, W: 0.50 cm
Day 15, animal F5
  Tumor measurements on Day 15, L: 0.50 cm
  Tumor volumes on Day 15: 0.0625 cm^3
  Tumor measurements on Day 15, W: 0.50 cm
Day 15, animal M1
  Tumor measurements on Day 15, L: 0.20 cm
  Tumor volumes on Day 15: 0.0040 cm^3
  Tumor measurements on Day 15, W: 0.20 cm
Day 15, animal M2
  Tumor measurements on Day 15, L: 0.50 cm
  Tumor volumes on Day 15: 0.0625 cm^3
  Tumor measurements on Day 15, W: 0.50 cm
Day 15, animal M3
  Tumor measurements on Day 15, L: 0.20 cm
  Tumor volumes on Day 15: 0.0040 cm^3
  Tumor measurements on Day 15, W: 0.20 cm
Day 15, animal M4
  Tumor measurements on Day 15, L: 0.30 cm
  Tumor measurements on Day 15, W: 0.30 cm
Day 15, animal M5
  Tumor measurements on Day 15, L: 0.50 cm
  Tumor volumes on Day 15: 0.0625 cm^3
  Tumor measurements on Day 15, W: 0.50 cm
Day 15
  Tumor Volume (cm^3) (Mean ± SD): 0.054 ± 0.0399 cm^3
  PI (TV), percent inhibition of tumor volume: 92.56%
Daily dosing Days 3-15
  effect on tumor growth in words: effective towards the tumor inhibition
